Assays:
[1] = Displacement of [3H]epibatidine from nAChR in rat cerebral cortex membrane; format: cell membranes
[2] = system: Mus musculus; test: Toxicity in CD1 mouse assessed as mortality at 2.0 umol/kg, iv; format: organism-based; conditions: in vivo
[3] = system: Mus musculus; test: Toxicity in CD1 mouse assessed as straub tail response at 1.3 umol/kg, iv; format: organism-based; conditions: in vivo
[4] = system: Mus musculus; test: Toxicity in CD1 mouse assessed as seizures at 1.3 umol/kg, iv; format: organism-based; conditions: in vivo
[5] = target: T1, Neuronal acetylcholine receptor; alpha4/beta2 (Homo sapiens, UniProt P17787+P43681); test: Antagonist activity at human alpha4beta2 nAChR expressed in human SHEP1 cells assessed as reduction in peak amplitude at 1 uM by whole cell patch clamp technique in presence of acetylcholine; format: functional, cell-based; design: scale not given: the % may be the effect or the level left
[6] = Half life in iv dosed baboon thalamus; format: ADME, organism-based; conditions: papio anubis
[7] = system: Mus musculus; test: Toxicity in CD1 mouse assessed as circling behavior at 1.7 umol/kg, iv; format: organism-based; conditions: in vivo
[8] = system: Mus musculus; test: Toxicity in CD1 mouse assessed as circling behavior at 0.8 umol/kg, iv; format: organism-based; conditions: in vivo
[9] = system: Mus musculus; test: Toxicity in CD1 mouse assessed as hyperactivity at 3.3 umol/kg, iv; format: organism-based; conditions: in vivo
[10] = system: Mus musculus; test: Toxicity in CD1 mouse assessed as straub tail response at 6.7 umol/kg, iv; format: organism-based; conditions: in vivo
[11] = target: Neuronal acetylcholine receptor; alpha3/beta4 (Rattus norvegicus, UniProt P04757+P12392); test: Displacement of [3H]epibatidine from rat alpha3beta4 nAChR expressed in HEK293 cells; format: cell-based
[12] = target: Neuronal acetylcholine receptor subunit alpha-2 (Rattus norvegicus, UniProt P12389+P12390); test: Displacement of [3H]epibatidine from rat alpha2beta2 nAChR expressed in HEK293 cells; format: cell-based
[13] = system: Mus musculus; test: Toxicity in CD1 mouse assessed as straub tail response at 0.8 umol/kg, iv; format: organism-based; conditions: in vivo
[14] = Half life in rhesus monkey thalamus; format: ADME, organism-based, Macaca mulatta
[15] = target: Neuronal acetylcholine receptor; alpha3/beta2 (Rattus norvegicus, UniProt P04757+P12390); test: Displacement of [3H]epibatidine from rat alpha3beta2 nAChR expressed in HEK293 cells; format: cell-based
[16] = system: Mus musculus; test: Toxicity in CD1 mouse assessed as seizures at 6.7 umol/kg, iv; format: organism-based; conditions: in vivo
[17] = target: Neuronal acetylcholine receptor; alpha2/beta4 (Rattus norvegicus, UniProt P12389+P12392); test: Displacement of [3H]epibatidine from rat alpha2beta4 nAChR expressed in HEK293 cells; format: cell-based
[18] = system: Mus musculus; test: Toxicity in CD1 mouse assessed as straub tail response at 1.7 umol/kg, iv; format: organism-based; conditions: in vivo
[19] = system: Mus musculus; test: Toxicity in CD1 mouse assessed as straub tail response at 3.3 umol/kg, iv; format: organism-based; conditions: in vivo
[20] = target: Neuronal acetylcholine receptor; alpha4/beta4 (Rattus norvegicus, UniProt P09483+P12392); test: Displacement of [3H]epibatidine from rat alpha4beta4 nAChR expressed in HEK293 cells; format: cell-based
[21] = target: Neuronal acetylcholine receptor subunit alpha-6 (Rattus norvegicus, UniProt P12390+P43143); test: Displacement of [3H]epibatidine from rat alpha6beta2 nAChR expressed in HEK293 cells; format: cell-based
[22] = Lipophilicity, log D at pH 7.4; format: physicochemical; conditions: buffer
[23] = target: Neuronal acetylcholine receptor; alpha4/beta2 (Rattus norvegicus, UniProt P09483+P12390); test: Displacement of [3H]epibatidine from rat alpha4beta2 nAChR expressed in HEK293 cells; format: cell-based
[24] = system: Mus musculus; test: Toxicity in CD1 mouse at 0.2 umol/kg, iv; format: organism-based; conditions: in vivo
[25] = system: Mus musculus; test: Toxicity in CD1 mouse assessed as reduced locomotor activity at 2.0 umol/kg, iv; format: organism-based; conditions: in vivo
[26] = system: Mus musculus; test: Toxicity in CD1 mouse at 0.002 umol/kg, iv; format: organism-based; conditions: in vivo
[27] = system: Mus musculus; test: Toxicity in CD1 mouse at 0.05 umol/kg, iv; format: organism-based; conditions: in vivo
[28] = target: T1, Neuronal acetylcholine receptor; alpha4/beta2; test: Binding affinity to human alpha4beta2 nAChR expressed in human SHEP1 cells; format: cell-based
[29] = Metabolic stability in CD1 mouse brain at 1.5 MBq, iv after 30 mins; format: ADME, organism-based; conditions: read-out: Stability
[30] = Metabolic stability in CD1 mouse blood at 1.5 MBq, iv after 30 mins; format: ADME, organism-based; conditions: read-out: Stability
[31] = Metabolic stability in iv dosed baboon blood after 60 mins; format: ADME, organism-based; conditions: papio anubis, read-out: Stability

Sequence of Neuronal acetylcholine receptor subunit alpha-6 (P43143 whole entry, one chain of several): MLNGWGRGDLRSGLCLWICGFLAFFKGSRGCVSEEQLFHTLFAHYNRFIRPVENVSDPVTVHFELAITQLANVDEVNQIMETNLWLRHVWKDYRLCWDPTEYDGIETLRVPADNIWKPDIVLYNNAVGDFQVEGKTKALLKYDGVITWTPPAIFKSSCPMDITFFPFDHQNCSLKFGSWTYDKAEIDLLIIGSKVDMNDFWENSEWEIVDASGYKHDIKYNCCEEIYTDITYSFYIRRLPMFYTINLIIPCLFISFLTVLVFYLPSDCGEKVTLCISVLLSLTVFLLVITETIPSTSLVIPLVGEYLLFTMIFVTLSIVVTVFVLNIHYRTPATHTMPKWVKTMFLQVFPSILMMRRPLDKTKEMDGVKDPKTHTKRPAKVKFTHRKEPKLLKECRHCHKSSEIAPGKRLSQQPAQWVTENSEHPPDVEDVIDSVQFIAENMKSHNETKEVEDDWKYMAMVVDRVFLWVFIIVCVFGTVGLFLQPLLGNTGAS
Sequence of Neuronal acetylcholine receptor subunit alpha-2 (P12389 whole entry, one chain of several): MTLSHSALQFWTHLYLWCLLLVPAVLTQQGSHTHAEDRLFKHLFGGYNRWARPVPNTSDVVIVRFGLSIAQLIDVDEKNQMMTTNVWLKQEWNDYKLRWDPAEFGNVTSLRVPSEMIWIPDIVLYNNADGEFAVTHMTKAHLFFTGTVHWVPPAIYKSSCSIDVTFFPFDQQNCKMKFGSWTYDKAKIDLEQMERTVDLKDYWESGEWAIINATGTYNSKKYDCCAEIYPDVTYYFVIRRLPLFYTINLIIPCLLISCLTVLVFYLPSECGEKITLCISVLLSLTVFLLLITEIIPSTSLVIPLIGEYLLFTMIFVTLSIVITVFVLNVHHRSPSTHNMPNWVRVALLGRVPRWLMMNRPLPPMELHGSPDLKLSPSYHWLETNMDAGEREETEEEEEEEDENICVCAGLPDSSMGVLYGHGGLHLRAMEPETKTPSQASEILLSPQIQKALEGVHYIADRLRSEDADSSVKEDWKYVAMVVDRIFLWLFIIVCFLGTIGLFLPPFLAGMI
Sequence of Neuronal acetylcholine receptor; alpha2/beta4 (P12389 whole entry): as the sequence (P12389 whole entry, one chain of several) above
Sequence of Neuronal acetylcholine receptor; alpha2/beta4 (P12392 whole entry): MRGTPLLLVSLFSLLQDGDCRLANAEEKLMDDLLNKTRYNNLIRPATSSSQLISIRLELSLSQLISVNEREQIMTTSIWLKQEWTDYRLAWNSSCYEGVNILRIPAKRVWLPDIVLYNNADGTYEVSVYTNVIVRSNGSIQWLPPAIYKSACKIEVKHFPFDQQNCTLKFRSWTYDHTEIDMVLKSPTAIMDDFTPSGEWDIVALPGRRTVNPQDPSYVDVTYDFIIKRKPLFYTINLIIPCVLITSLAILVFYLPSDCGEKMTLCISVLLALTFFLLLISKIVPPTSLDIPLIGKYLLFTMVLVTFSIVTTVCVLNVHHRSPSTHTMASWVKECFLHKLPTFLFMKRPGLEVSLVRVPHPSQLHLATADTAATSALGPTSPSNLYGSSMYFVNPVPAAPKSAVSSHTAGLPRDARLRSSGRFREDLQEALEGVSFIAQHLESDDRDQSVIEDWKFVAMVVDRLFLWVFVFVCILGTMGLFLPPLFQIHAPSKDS
Sequence of Neuronal acetylcholine receptor; alpha3/beta2 (P04757 whole entry): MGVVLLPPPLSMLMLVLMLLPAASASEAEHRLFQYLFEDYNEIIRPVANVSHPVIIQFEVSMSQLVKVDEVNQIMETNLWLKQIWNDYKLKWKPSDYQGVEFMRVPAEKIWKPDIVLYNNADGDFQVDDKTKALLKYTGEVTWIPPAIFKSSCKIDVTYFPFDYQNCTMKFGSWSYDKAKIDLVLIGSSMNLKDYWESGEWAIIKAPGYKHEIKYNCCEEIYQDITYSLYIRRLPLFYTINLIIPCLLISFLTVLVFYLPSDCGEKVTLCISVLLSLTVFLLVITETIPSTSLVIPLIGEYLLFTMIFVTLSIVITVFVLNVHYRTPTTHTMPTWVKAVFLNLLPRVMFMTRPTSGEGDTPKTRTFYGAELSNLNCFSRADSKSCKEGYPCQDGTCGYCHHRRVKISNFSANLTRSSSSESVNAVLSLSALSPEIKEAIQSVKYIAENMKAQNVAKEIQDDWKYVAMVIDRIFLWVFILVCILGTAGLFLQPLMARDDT
Sequence of Neuronal acetylcholine receptor; alpha3/beta2 (P12390 whole entry): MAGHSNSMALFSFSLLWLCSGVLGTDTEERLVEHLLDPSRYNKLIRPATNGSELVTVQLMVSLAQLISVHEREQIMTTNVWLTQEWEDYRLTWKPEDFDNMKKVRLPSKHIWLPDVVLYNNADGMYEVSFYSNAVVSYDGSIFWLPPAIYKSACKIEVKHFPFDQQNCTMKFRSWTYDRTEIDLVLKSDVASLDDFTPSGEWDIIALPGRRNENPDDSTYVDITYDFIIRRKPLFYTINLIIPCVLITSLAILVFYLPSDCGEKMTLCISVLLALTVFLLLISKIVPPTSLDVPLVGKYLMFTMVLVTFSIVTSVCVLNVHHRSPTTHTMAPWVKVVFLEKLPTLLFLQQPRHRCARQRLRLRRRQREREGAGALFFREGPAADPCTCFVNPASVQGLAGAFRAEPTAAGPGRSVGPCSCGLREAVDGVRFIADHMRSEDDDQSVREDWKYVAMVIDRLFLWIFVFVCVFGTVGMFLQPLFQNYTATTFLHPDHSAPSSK
Sequence of Neuronal acetylcholine receptor; alpha3/beta4 (P04757 whole entry): as the sequence (P04757 whole entry) above
Sequence of Neuronal acetylcholine receptor; alpha3/beta4 (P12392 whole entry): as the sequence (P12392 whole entry) above
Sequence of Neuronal acetylcholine receptor; alpha4/beta4 (P09483 whole entry): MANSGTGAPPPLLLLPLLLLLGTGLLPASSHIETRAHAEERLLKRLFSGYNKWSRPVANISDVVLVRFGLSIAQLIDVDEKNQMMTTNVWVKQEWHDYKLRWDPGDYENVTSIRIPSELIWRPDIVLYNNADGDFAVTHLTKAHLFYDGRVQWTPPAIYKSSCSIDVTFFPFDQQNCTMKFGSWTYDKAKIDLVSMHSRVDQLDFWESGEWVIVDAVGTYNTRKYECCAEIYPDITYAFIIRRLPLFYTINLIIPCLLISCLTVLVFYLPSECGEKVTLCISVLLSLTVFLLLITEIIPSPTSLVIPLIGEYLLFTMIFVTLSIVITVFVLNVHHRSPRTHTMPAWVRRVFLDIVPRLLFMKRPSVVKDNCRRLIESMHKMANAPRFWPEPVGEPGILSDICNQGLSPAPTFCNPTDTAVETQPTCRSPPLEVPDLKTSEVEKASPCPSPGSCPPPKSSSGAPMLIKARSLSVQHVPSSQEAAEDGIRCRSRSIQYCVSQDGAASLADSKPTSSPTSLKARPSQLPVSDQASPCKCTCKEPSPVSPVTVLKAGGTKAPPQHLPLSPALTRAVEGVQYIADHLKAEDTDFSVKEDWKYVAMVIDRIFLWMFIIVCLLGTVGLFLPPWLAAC
Sequence of Neuronal acetylcholine receptor; alpha4/beta4 (P12392 whole entry): as the sequence (P12392 whole entry) above
Sequence of Neuronal acetylcholine receptor; alpha4/beta2 (Rattus norvegicus, UniProt P09483+P12390) (P09483 whole entry): as the sequence (P09483 whole entry) above
Sequence of Neuronal acetylcholine receptor; alpha4/beta2 (Rattus norvegicus, UniProt P09483+P12390) (P12390 whole entry): as the sequence (P12390 whole entry) above
T1 sequence (P17787 whole entry): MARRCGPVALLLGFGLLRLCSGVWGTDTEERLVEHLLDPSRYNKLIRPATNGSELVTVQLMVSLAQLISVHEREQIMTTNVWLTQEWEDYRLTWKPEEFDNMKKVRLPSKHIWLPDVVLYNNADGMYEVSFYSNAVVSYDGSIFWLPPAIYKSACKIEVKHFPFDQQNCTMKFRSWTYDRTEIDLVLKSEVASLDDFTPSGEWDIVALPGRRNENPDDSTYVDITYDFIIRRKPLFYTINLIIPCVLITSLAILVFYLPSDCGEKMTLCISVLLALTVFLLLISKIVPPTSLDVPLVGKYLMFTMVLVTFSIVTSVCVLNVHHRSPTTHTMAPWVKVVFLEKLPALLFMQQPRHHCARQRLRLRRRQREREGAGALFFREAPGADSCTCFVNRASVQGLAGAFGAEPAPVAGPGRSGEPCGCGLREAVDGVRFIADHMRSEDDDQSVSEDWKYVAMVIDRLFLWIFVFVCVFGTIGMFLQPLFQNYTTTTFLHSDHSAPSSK
T1 sequence (P43681 whole entry): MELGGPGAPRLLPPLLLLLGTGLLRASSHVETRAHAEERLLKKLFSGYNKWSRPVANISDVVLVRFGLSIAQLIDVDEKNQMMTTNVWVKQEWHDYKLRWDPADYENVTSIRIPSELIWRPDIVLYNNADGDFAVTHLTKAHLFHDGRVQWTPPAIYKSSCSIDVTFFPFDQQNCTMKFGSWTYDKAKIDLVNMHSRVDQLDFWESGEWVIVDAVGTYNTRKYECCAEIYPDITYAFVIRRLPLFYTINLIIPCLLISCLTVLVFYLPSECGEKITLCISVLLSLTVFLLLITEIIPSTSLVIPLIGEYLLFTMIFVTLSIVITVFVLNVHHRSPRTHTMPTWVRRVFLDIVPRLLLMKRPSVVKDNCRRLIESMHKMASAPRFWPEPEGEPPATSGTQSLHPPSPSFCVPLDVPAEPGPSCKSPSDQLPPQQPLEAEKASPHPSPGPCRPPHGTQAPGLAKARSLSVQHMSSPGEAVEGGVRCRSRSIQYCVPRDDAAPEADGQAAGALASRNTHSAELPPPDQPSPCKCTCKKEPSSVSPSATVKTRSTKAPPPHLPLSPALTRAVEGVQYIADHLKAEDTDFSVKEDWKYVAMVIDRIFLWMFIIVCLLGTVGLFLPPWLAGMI

Compound: CN1[C@@H]2CC[C@@H]1[C@@H](c1cncc(-c3cccnc3F)c1)C2 (stereo in doubt; (+)-6b)
- Ki [1]: 7.35 nM

Compound: [18F]c1ccc(OC[C@@H]2CCN2)cn1
- Activity [2]: Toxic
- Activity [3]: Toxic
- Activity [4]: Toxic

Compound: CN1[C@@H]2CC[C@@H]1[C@@H](c1cncc(-c3cccc(F)n3)c1)C2 (stereo in doubt; (-)-6c) [listing 1 of 2 here]
- Activity [5]: 14%

Compound: CN1[C@@H]2CC[C@@H]1[C@@H](c1cncc(-c3cccnc3[18F])c1)C2
- half-life [6]: 3.5 h

Compound: CN1[C@@H]2CC[C@@H]1[C@@H](c1cncc(-c3ccnc(F)c3)c1)C2 (stereo in doubt; (+)-6a)
- Ki [1]: 1.29 nM

Compound: Clc1ccc(C2CC3CCC2N3)cn1 (centres undefined) [EPIBATIDINE]
- Ki [1]: 0.045 nM

Compound: [18F]c1ncccc1OC[C@@H]1CCN1
- Activity [7]: Toxic
- Activity [8]: Toxic
- Activity [9]: Toxic
- Activity [10]: Toxic
- Ki [11]: 3680 nM
- Ki [12]: 1.44 nM
- Activity [13]: Toxic
- half-life [14]: 4.5 h
- Ki [15]: 3.02 nM
- Activity [16]: Toxic
- Ki [17]: 181 nM
- Activity [18]: Toxic
- Activity [19]: Toxic

Compound: CN1C2CCC1C(c1cncc(-c3ccc(F)nc3)c1)C2 (single isomer, unassigned; (-))
- Ki [20]: 0.31 nM
- Ki [21]: 0.047 nM
- Ki [1]: 0.05 nM
- logD [22]: 0.46
- Ki [11]: 30 nM
- Ki [23]: 0.011 nM
- Ki [12]: 0.009 nM
- Ki [15]: 0.093 nM
- Ki [17]: 0.51 nM

Compound: CN1[C@@H]2CC[C@@H]1[C@@H](c1cncc(-c3ccnc(F)c3)c1)C2 (stereo in doubt; (-)-6a)
- Ki [20]: 0.58 nM
- Ki [21]: 0.031 nM
- Ki [1]: 0.11 nM
- Ki [11]: 39 nM
- Ki [23]: 0.019 nM
- Ki [12]: 0.015 nM
- Ki [15]: 0.13 nM
- Ki [17]: 0.84 nM

Compound: CN1[C@@H]2CC[C@@H]1[C@@H](c1cncc(-c3cccc(F)n3)c1)C2 (stereo in doubt; (-)-6c) [listing 2 of 2 here]
- Ki [20]: 6.2 nM
- Ki [21]: 0.95 nM
- Ki [1]: 0.31 nM
- Activity [24]: Non-toxic
- Activity [25]: Non-toxic
- Activity [26]: Non-toxic
- logD [22]: 0.99
- Ki [11]: 310 nM
- Ki [23]: 0.26 nM
- Activity [27]: Non-toxic
- Ki [12]: 0.26 nM
- Ki [15]: 4 nM
- Ki [17]: 7.8 nM
- Kd [28]: 0.54 nM

Compound: CN1[C@@H]2CC[C@@H]1[C@@H](c1cncc(-c3cccnc3F)c1)C2 (racemic)
- Ki [1]: 0.16 nM
- logD [22]: 0.67

Compound: CN1[C@@H]2CC[C@@H]1[C@@H](c1cncc(-c3cccc(F)n3)c1)C2 (stereo in doubt; (+)-6c)
- Ki [1]: 4.67 nM

Compound: CN1[C@@H]2CC[C@@H]1[C@@H](c1cncc(-c3cccc([18F])n3)c1)C2
- half-life [6]: 1.33 h
- remaining at 0.5 h [29]: 92.5%
- remaining at 0.5 h [30]: 12.3%
- remaining at 1 h [31]: 14.9%

Compound: CN1[C@@H]2CC[C@@H]1[C@@H](c1cncc(-c3ccnc(F)c3)c1)C2 (racemic)
- logD [22]: 0.74

Compound: CN1C2CCC1C(c1cncc(-c3ccc([18F])nc3)c1)C2 (single isomer, unassigned; (+))
- Ki [1]: 2.1 nM

Compound: CN1[C@@H]2CC[C@@H]1[C@@H](c1cncc(-c3cccnc3F)c1)C2 (stereo in doubt; (-)-6b)
- Ki [20]: 0.71 nM
- Ki [21]: 0.021 nM
- Ki [1]: 0.05 nM
- Ki [11]: 41 nM
- Ki [23]: 0.058 nM
- Ki [12]: 0.034 nM
- Ki [15]: 0.68 nM
- Ki [17]: 0.66 nM
